Measured values published in publication PMC6328046 (Gastroenterology, 2018).

Molecular target: HDAC2 (Homo sapiens, UniProt Q92769)
Test: surface plasmon resonance with recombinant HDAC2
Format: binding

Sequence of HDAC2 (Q92769 whole entry): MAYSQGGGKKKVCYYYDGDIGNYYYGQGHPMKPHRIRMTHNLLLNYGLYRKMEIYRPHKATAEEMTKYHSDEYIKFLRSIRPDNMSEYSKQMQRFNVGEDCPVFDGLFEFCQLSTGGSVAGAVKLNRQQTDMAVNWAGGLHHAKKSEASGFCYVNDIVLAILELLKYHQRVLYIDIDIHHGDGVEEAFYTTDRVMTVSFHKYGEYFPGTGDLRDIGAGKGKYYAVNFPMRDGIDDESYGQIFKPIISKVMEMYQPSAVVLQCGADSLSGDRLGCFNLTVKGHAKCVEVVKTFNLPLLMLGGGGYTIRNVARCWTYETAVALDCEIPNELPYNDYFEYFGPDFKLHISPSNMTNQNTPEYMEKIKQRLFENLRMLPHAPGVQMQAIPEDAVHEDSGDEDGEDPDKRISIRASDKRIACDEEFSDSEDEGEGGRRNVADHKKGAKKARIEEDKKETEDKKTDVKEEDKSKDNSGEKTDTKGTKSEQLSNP

`COc1ccc(Nc2nnc(-c3ccc(C(=O)NO)cc3)o2)cc1` [metavert] gave a Kd of 12.8 µM.
